Data set [1] in a line: Pharmacokinetics of compounds 1–11 in rat plasma (UPLC-TQ/MS) after oral administration of HYD and plus-minus Haizao/Gancao decoctions. It counts as in vivo, Wistar rats (PTU-induced model of hypothyroidism). Particulars: Wistar, model rats, n = 6, mean ± S.D. The procedure: Plasma samples (200 μL) and IS solution (50 μL, 1215 ng/mL for diphenhydramine, 476 ng/mL for chloromycetin) were added to an Eppendorf tube, and this mixture was extracted with methanol (550 μL) by shaking on a vortex-mixer for 2 min, and centrifuged for 10 min at 13,000 rpm. The contents were evaporated to dryness in a rotary evaporator at 37 °C. The residue was reconstituted in methanol (100 μL) and centrifuged (13,000 rpm for 10 min). The supernatant was transferred to an autosample vial and an aliquot of 5 μL was injected onto the UPLC-MS/MS system for analysis.
The developed and validated method was used to evaluate the pharmacokinetics of the eleven compounds after oral administration of different fractions in […] (Figure 3). […] The pharmacokinetic parameters including half-life (T1/2), maximum plasma concentration (Cmax), time to reach the maximum concentration (Tmax), and area under concentration–time curve (AUC0~t) were calculated by a non-compartment model and are shown in Table 6.
A considerable increase in thyroid stimulating hormone (TSH) and decrease in triiodothyronine (T3) and tetraiodothyronine (T4) in serum are considered to be markers of successful hypothyroid rat model preparation. PTU is the classic drug used to replicate hypothyroidism in rat models. It is generally thought that PTU can decrease the level of thyroid hormone in a hypothyroid rat model by inhibiting the activity of TPO [31, 32]. Model Wistar rats were administered PTU intragastrically at a dose of 10 mg/kg (QD) for 2 weeks to establish hypothyroidism. Serum from model rats was collected on the last day of PTU administration and the T3, T4 and TSH levels were determined using test kits. Wistar rats with a considerable increase in […] and a decrease in serum T3 and T4 were considered to have hypothyroidism and were selected for subsequent pharmacokinetic studies.
For the pharmacokinetic studies, model Wistar rats were divided into six groups (n = 6 per group). Rats in the model HYD groups were administered HYD at a dose of 12 mL/kg intragastrically. In the model HYD-GC groups, HYD-GC (11 mL/kg) was administered. In the model HYD-HZ groups, HYD-HZ (11 mL/kg) was administered. In the model HYD-GC-HZ groups, HYD-GC-HZ (10 mL/kg) was administered. In the model GH groups, GH (2 mL/kg) was administered. In the model GC groups, GC (1 mL/kg) was administered. Blood samples were collected at specific time points before (0 min) and after oral administration (5, 10, 20, 40, 60, 120, 240, 480, 720, 1440 min). A total of 360 blood samples were collected. All blood samples were immediately centrifuged at 2500 rpm for 10 min to obtain plasma, which was labeled and frozen at −80 °C until analysis. Blank plasma was obtained from the rats without oral administration and was used to investigate the assay development and validation.
To determine the pharmacokinetic parameters of compounds 1–11 in different groups, concentration–time data were analyzed by DAS 3.2 software (Mathematical Pharmacology Professional Committee of China, Shanghai, China, 2011). Data were expressed as the mean and standard deviation (S.D.) with triplicate measurements. The identification of significant differences between different groups was carried out using the Student’s t-test. A p value < 0.05 was considered statistically significant.

For another data set, the system named is CYP2C19. Also noted: method as in PMID 21462897. Particulars: cited from earlier work.
For the next data set, the system named is CYP2C9. More on the design: method as in PMID 21462897. Particulars: cited from earlier work.
The next data set concerns CYP3A4. More on the design: method as in PMID 21462897. Particulars: cited from earlier work.
Setting [2] is: 1 mL/kg, group GC (extract of Gancao), 1 mL/kg intragastrically.
The mark [3] stands for this setting: 2 mL/kg, group GH (extract of Gancao and Haizao), 2 mL/kg intragastrically.
[4] abbreviates: 11 mL/kg, group HYD-HZ (HYD minus Haizao), 11 mL/kg intragastrically.
Setting [5] is: 12 mL/kg, group HYD, 12 mL/kg intragastrically.
Setting [6] is: 10 mL/kg, group HYD-GH (HYD minus Gancao and Haizao; HYD-GC-HZ), 10 mL/kg intragastrically.
Where [7] appears, read: 11 mL/kg, group HYD-GC (HYD minus Gancao), 11 mL/kg intragastrically.

Consider `O=C1C[C@@H](c2ccc(O[C@@H]3O[C@H](CO)[C@@H](O)[C@H](O)[C@H]3O)cc2)Oc2cc(O)ccc21` [Compound 1, liquiritin], for which, in data set [1] (setting [2]), the AUC(0-t) came out at 229 ± 119 ng·h/mL, the Cmax was 147 ± 37.7 ng/mL, the Tmax worked out at 0.67 h and the half-life was 0.99 ± 0.34 h. For the same compound, in data set [1] (setting [3]), the AUC(0-t) stood at 2510 ± 814 ng·h/mL, the Cmax amounted to 254 ± 122 ng/mL, the Tmax was 0.17 h and the half-life was 1.34 ± 1.48 h. Also, in data set [1] (setting [4]), the AUC(0-t) is 987 ± 567 ng·h/mL, the Cmax is 494 ± 165 ng/mL, the Tmax stood at 0.31 ± 0.07 h and the half-life was 3.66 ± 3.3 h. For the same compound, in data set [1] (setting [5]), the AUC(0-t) is 1760 ± 287 ng·h/mL, the Cmax turned out to be 1600 ± 595 ng/mL, the Tmax was 0.19 ± 0.11 h and the half-life is 9.23 ± 5.85 h.
On to `C[C@@H]1O[C@@H](O[C@H]2[C@H](Oc3cc(O)c4c(c3)O[C@H](c3ccc(O)cc3)CC4=O)O[C@H](CO)[C@@H](O)[C@@H]2O)[C@H](O)[C@H](O)[C@H]1O` [Compound 2, naringin], for which the AUC(0-t) in data set [1] (setting [6]) amounted to 565 ± 352 ng·h/mL; in data set [1] (setting [7]), 561 ± 278 ng·h/mL; in data set [1] (setting [4]), 1060 ± 244 ng·h/mL; in data set [1] (setting [5]), 912 ± 198 ng·h/mL. For the same compound, the Cmax is 424 ± 188 ng/mL in data set [1] (setting [6]), 271 ± 75.4 ng/mL in data set [1] (setting [7]), 463 ± 194 ng/mL in data set [1] (setting [4]) and 612 ± 200 ng/mL in data set [1] (setting [5]). For the same compound, the Tmax in data set [1] (setting [6]) is 0.15 ± 0.1 h; in data set [1] (setting [7]) it was 0.19 ± 0.07 h; in data set [1] (setting [4]) it was 0.5 ± 0.18 h; in data set [1] (setting [5]), 0.17 ± 0.09 h. Besides, the half-life in data set [1] (setting [6]) is 1.23 ± 0.15 h; in data set [1] (setting [7]), 1.12 ± 0.28 h; in data set [1] (setting [4]), 2.59 ± 2.02 h; in data set [1] (setting [5]), 11.3 ± 4.86 h.
`O=C1C[C@@H](c2ccc(O)cc2)Oc2cc(O)ccc21` [Compound 6, liquiritigenin]: in data set [1] (setting [2]), the AUC(0-t) came to 1000 ± 946 ng·h/mL, the Cmax turned out to be 220 ± 47.4 ng/mL, the Tmax worked out at 2.5 ± 1.73 h and the half-life is 2.41 ± 1.57 h. In data set [1] (setting [3]), the AUC(0-t) was determined as 681 ± 771 ng·h/mL, the Cmax amounted to 211 ± 70.3 ng/mL, the Tmax turned out to be 1.5 ± 1.23 h and the half-life was 4.12 ± 3.73 h. In data set [1] (setting [4]), the AUC(0-t) worked out at 2150 ± 629 ng·h/mL, the Cmax turned out to be 276 ± 66.5 ng/mL, the Tmax was found to be 0.79 ± 1.58 h and the half-life is 3.94 ± 0.59 h. Also, in data set [1] (setting [5]), the Cmax is 358 ± 91.9 ng/mL, the Tmax amounted to 2.75 ± 4.07 h and the half-life was 4.05 ± 0.77 h.
With `CC1(C)[C@@H](O[C@H]2O[C@H](C(=O)O)[C@@H](O)[C@H](O)[C@H]2O[C@@H]2O[C@H](C(=O)O)[C@@H](O)[C@H](O)[C@H]2O)CC[C@]2(C)[C@H]3C(=O)C=C4[C@@H]5C[C@@](C)(C(=O)O)CC[C@]5(C)CC[C@@]4(C)[C@]3(C)CC[C@@H]12` [Compound 7, glycyrrhizic acid], in data set [1] (setting [2]), the area under the curve AUC(0-t) worked out at 1760 ± 1430 ng·h/mL, the highest concentration (Cmax) worked out at 607 ± 137 ng/mL, the Tmax turned out to be 1.25 ± 0.5 h and the half-life is 4.47 ± 2.63 h. Besides, in data set [1] (setting [3]), the AUC(0-t) turned out to be 3600 ± 1840 ng·h/mL, the Cmax stood at 1350 ± 322 ng/mL, the Tmax came out at 0.56 ± 0.4 h and the half-life is 9.94 ± 8.89 h. In addition, in data set [1] (setting [4]), the AUC(0-t) stood at 587 ± 261 ng·h/mL, the Cmax was found to be 587 ± 261 ng/mL, the Tmax amounted to 0.67 ± 0.42 h and the half-life is 1.84 ± 1.82 h. In data set [1] (setting [5]), the AUC(0-t) came to 1690 ± 639 ng·h/mL, the Cmax was 1370 ± 712 ng/mL, the Tmax was 0.292 ± 0.1 h and the half-life is 1.58 ± 1.01 h.
Regarding `COc1c2ccoc2cc2oc(=O)ccc12` [Compound 8, bergapten], in data set [1] (setting [6]), the AUC(0-t) stood at 786 ± 369 ng·h/mL, the Cmax was found to be 125 ± 35.6 ng/mL, the time to peak (Tmax) turned out to be 0.11 ± 0.04 h and the half-life was 9.6 ± 10.6 h. Moreover, in data set [1] (setting [7]), the AUC(0-t) turned out to be 470 ± 130 ng·h/mL, the Cmax came to 183 ± 47 ng/mL, the Tmax was 0.61 ± 0.14 h and the half-life was 1.17 ± 0.1 h. In data set [1] (setting [4]), the AUC(0-t) came out at 649 ± 132 ng·h/mL, the Cmax came to 192 ± 54.5 ng/mL, the Tmax was 0.81 ± 0.34 h and the half-life is 1.92 ± 1.75 h. In addition, in data set [1] (setting [5]), the AUC(0-t) is 819 ± 25.7 ng·h/mL, the Cmax is 227 ± 57.8 ng/mL, the Tmax came out at 0.33 ± 0.21 h and the half-life is 1.56 ± 1.02 h.
For the compound `COc1ccc(-c2cc(=O)c3c(OC)c(OC)c(OC)c(OC)c3o2)cc1OC` [Compound 9, nobiletin], in data set [1] (setting [6]), the AUC(0-t) is 1180 ± 539 ng·h/mL, the Cmax stood at 311 ± 126 ng/mL, the Tmax was 0.46 ± 0.37 h and the half-life is 3.26 ± 3.53 h. In addition, in data set [1] (setting [7]), the AUC(0-t) came to 2010 ± 1020 ng·h/mL, the Cmax was 501 ± 183 ng/mL, the Tmax is 0.89 ± 0.27 h and the half-life is 4.53 ± 1.89 h. In addition, in data set [1] (setting [4]), the AUC(0-t) came out at 2290 ± 55.5 ng·h/mL, the Cmax came out at 322 ± 88.2 ng/mL, the Tmax turned out to be 0.19 ± 0.07 h and the half-life was 16.2 ± 7.06 h. In data set [1] (setting [5]), the AUC(0-t) stood at 2870 ± 285 ng·h/mL, the Cmax is 1000 ± 178 ng/mL, the Tmax came to 0.67 h and the half-life is 6.03 ± 1.95 h.
As for `COc1ccc2ccc(=O)oc2c1CC=C(C)C` [Compound 10, osthole], in data set [1] (setting [6]), the AUC(0-t) came out at 98.5 ± 41 ng·h/mL, the Cmax turned out to be 69.2 ± 25.6 ng/mL, the Tmax amounted to 0.53 ± 0.31 h and the half-life was 0.68 ± 0.49 h. In addition, in data set [1] (setting [7]), the AUC(0-t) stood at 205 ± 94.7 ng·h/mL, the Cmax came out at 101 ± 31.9 ng/mL, the time of peak concentration (Tmax) came to 0.39 ± 0.14 h and the half-life is 1.54 ± 0.51 h. In data set [1] (setting [4]), the AUC(0-t) was 295 ± 117 ng·h/mL, the Cmax is 295 ± 117 ng/mL, the Tmax was 0.61 ± 0.25 h and the half-life was 1.45 ± 1.11 h. In addition, in data set [1] (setting [5]), the AUC(0-t) amounted to 748 ± 225 ng·h/mL, the Cmax turned out to be 458 ± 184 ng/mL, the Tmax came out at 0.61 ± 0.14 h and the half-life is 1.25 ± 0.03 h.
As to `CC1(C)[C@@H](O)CC[C@]2(C)[C@H]3C(=O)C=C4[C@@H]5C[C@@](C)(C(=O)O)CC[C@]5(C)CC[C@@]4(C)[C@]3(C)CC[C@@H]12` [Compound 11, glycyrrhetinic acid], the “inhibitory potencies on CYP2C19 enzyme activity” value in the data set on CYP2C19 is reported as “up to 50%”. Moreover, the “inhibitory potencies on CYP2C9 enzyme activity” value in the data set on CYP2C9 is recorded as “up to 50%”. Also, the “inhibitory potencies on CYP3A4 enzyme activity” value in the data set on CYP3A4 is on record as “up to 50%”. In data set [1] (setting [2]), the AUC(0-t) came to 10500 ng·h/mL, the Cmax stood at 776 ± 184 ng/mL, the Tmax was found to be 10 ± 2.31 h and the half-life was 4.66 ± 5.33 h. In data set [1] (setting [3]), the AUC(0-t) amounted to 22800 ng·h/mL, the Cmax worked out at 1250 ± 210 ng/mL, the Tmax came to 12.7 ± 5.89 h and the half-life was 1.93 ± 0.04 h. Further, in data set [1] (setting [4]), the area under the curve AUC(0-t) came to 12700 ng·h/mL, the Cmax is 756 ± 58.1 ng/mL, the Tmax was 12 h and the half-life is 1.99 ± 0.03 h. In data set [1] (setting [5]), the AUC(0-t) came to 9990 ± 1660 ng·h/mL, the Cmax amounted to 504 ± 101 ng/mL, the Tmax was found to be 9.33 ± 2.07 h and the half-life was 3.01 ± 2.35 h.
